# Test results: patent US20060167106A1, “Compounds acting at the centrosome” (priority 2004, published 2006)
# “Also recorded” adds a separate entry of the source.
# Assays:
# HeLa cells = assay: Oregon Green 488-Taxol localization in HeLa cells; type: cell-based; conditions: 0.5 μM Compound 1
# Method: (§1) A fluorescent compound, Oregon Green 488-Taxol (Molecular Probes/Invitrogen), was utilized to determine the distribution of Taxol in CHO cells (FIG. 33). In addition, the targeting of fluorescent Taxol to centrosomes was examined in Compound 1-treated cells (FIG. 34). Non-transfected wild-type CHO cells and HeLa cells were cultured in 2-well chambered cover-slips for 24-48 hours before treatment. Oregon Green 488-Taxol stock solution was made with DMSO. […] Oregon Green 488-Taxol fluorescence in living cells or fixed cells was imaged using a standard filter for FITC with the Nikon TE300 microscope/digital imaging system.
# CV-1 cells [1] = assay: Cell morphology, time-lapse imaging of CV-1 cells; type: cell-based, monkey; conditions: 500 nM
# Method: CV-1 cells and CHO cells were previously cultured in 2-well chambered cover-slips for 48 hours and incubated in 15 mM HEPES buffer-containing Ham's F-12/DMEM medium with different compounds. The cells were imaged using phase contrast settings with the Nikon TE300 microscope/digital imaging system. The cells were imaged ‘simultaneously’ under control of MetaVue software by capturing frames for cells from different conditions at the same time period using a motorized automated XYZ stage.
# […] […] A very low concentration of Taxol (10 nM) was used.
# Aurora-A kinase = molecular target: T1, Aurora-A kinase (Homo sapiens, UniProt O14965); assay: Aurora-A Kinase Assay (ELISA, Lats2 phosphorylation); type: biochemical; conditions: 50 nM to 50 μM
# T1 construct: purchased MBL International (CycLex)
# T1 sequence (O14965 1-403): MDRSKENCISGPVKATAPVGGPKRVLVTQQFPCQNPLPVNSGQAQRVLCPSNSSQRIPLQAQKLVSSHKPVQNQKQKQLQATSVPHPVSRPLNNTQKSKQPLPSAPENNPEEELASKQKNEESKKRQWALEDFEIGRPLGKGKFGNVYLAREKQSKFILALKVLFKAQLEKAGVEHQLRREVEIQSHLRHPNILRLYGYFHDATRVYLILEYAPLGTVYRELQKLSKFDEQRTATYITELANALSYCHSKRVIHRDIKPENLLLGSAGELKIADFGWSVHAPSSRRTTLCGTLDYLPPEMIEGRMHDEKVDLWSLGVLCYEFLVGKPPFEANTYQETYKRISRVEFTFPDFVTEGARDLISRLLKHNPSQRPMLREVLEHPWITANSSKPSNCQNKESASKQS
# Method: In the assay, the amount of phosphorylated substrate is measured by binding to ST-3B11, an anti-phospho-Lats2 serine83 monoclonal antibody, subsequently incubating with horseradish peroxidase-conjugated anti-mouse IgG, which then catalyzes the conversion of the chromogenic substrate tetra-methylbenzidine (TMB) from a colorless solution to a blue solution. The color is then quantified by spectrophotometry, which reflects the relative amount of Aurora-A activity in the sample.
# The assay was then performed according to the manufacturer's instructions using 40 Units/well of recombinant Aurora A enzyme. In the ‘enzyme control’ Aurora A enzyme and the ‘ATP minus control’, ATP was omitted from the reaction mixture. […] The color was quantified using a spectrophotometer (Perkin Elmer HTS 7000 Bio Assay Reader) at 450/535 nm wavelengths.
# [2] = test system: bovine microtubule-associated protein (MAP)-free tubulin; assay: Tubulin Polymerization Assay (MAP-free tubulin); type: biochemical
# Method: For in vitro tubulin polymerization assays, lyophilized bovine microtubule-associated protein (MAP)-free tubulin and PEM buffer (80 mM Na-PIPES (pH 6.9), 1 mM MgCl2, 1 mM EGTA) were purchased from Cytoskeleton (Denver, Colo.). MAP-free tubulin (1.5 mg/ml) was incubated with the test compounds, 0.5 μM Compound 1, 3 μM Taxol, 0.5 μM Compound 1+3 μM Taxol or 0.5 μM Compound 1+30 nM Taxol in PEM-0.3% DMSO. Absorbance at 340 nm was measured every minute for 60 min at 37° C. using a Perkin Elmer HTS 7000 spectrophotometer.
# CHO cells = assay: Oregon Green 488-Taxol localization in CHO cells; type: cell-based, Chinese hamster; conditions: 0.5 μM Compound 1
# Method: as §1
# [3] = test system: CRL-2261 (non-Hodgkin's lymphoma); assay: Viability and cell growth of CRL-2261 cells; type: cell-based; conditions: for Total cells (×10^6): CRL-2261, 36 hour treatment; for Total cells (×10^7): CRL-2261, 48 hour treatment
# Method: (§2) The viability and cell growth of two lymphoma cell lines, CRL-2261 (non-Hodgkin's lymphoma) and U937 (histiocytic lymphoma), were assayed following treatment with Compound 1 for 36-48 hours. Viability of the cells was determined using a kit from Molecular Probes (Eugene, Oreg.) that labels live cells green (calcein AM) and dead cells red (ethidium homodimer) according to manufacturer's instructions. Fluorescence of calcein and ethidium homodimer in cells was imaged using standard filters for FITC and Texas Red, respectively, with the Nikon TE300 microscope/digital imaging system.
# [4] = test system: bovine brain microtubule-associated protein (MAP)-rich tubulin; assay: MAP-Rich Tubulin Polymerization Assay; type: biochemical; conditions: 0.5 μM Compound 1 alone or with 3 μM Taxol
# Method: In vitro tubulin polymerization assays were repeated in the presence of microtubule-associated proteins (MAPs). Lyophilized bovine brain microtubule-associated protein (MAP)-rich tubulin and PEM buffer (80 mM Na-PIPES (pH 6.9), 1 mM MgCl2, 1 mM EGTA) were purchased from Cytoskeleton (Denver, Colo.). […] Absorbance at 340 nm was measured every minute for 60 minutes at 37° C. using a Perkin Elmer HTS 7000 spectrophotometer.
# CV-1 cells [5] = assay: α-tubulin immunofluorescence, microtubule network in CV-1 cells; type: cell-based, monkey; conditions: 0.5 μM, 5 hours
# Method: Before treatment, cells were grown in chamber slides for 24 hours in culture media containing 90% Eagle's MEM and 10% BCS. […] Cells were then washed in PBS and fixed in ice-cold 50/50 methanol/acetone for 10 minutes. […] Sigma, St. Louis, Mo.). Subsequently, slides were washed in PBS, incubated with an AlexaFluoR488-conjugated anti-mouse antibody (Molecular Probes, Eugene, Oreg.) at 37° C. for 30 minutes.
# [6] = test system: U937 (histiocytic lymphoma); assay: Viability and cell growth of U937 cells; type: cell-based; conditions: for Total cells (×10^6): U937, 36 hour treatment
# Method: as §2
# CV-1 cells [7] = assay: Actin (phalloidin) fluorescence in CV-1 cells; type: cell-based, monkey; conditions: 0.5 μM, 6 hours
# Method: CV-1 cells were obtained from ATCC and grown in chamber slides (Labtek, Campbell, Calif.) for 24 hours in 90% Eagle's MEM with 10% BCS before treatment. […] Cells were then washed in PBS and fixed in 3.7% formaldehyde solution in PBS for 10 minutes at room temperature. Cells were washed again twice in PBS for 5 minutes before incubation with AlexaFluoR488 conjugated phalloidin (1:40 dilution; Molecular Probes, Eugene, Oreg.) and 1% bovine serum albumin (BSA) in PBS at 37° C. for 30 minutes.
smiles,measurement,setting,value
CN(NC(=O)CC(=O)NN(C)C(=S)c1ccccc1)C(=S)c1ccccc1 [Compound 1],effect on the accumulation of Taxol (Oregon Green 488-Taxol) at centrosomes,HeLa cells,no effect on the accumulation of Taxol at centrosomes
same,changes in the shape of the cell,"CV-1 cells [1]; CV-1 cell, 4 hours",shrinkage of cell body relative to FIG. 19D
same,changes in the shape of live cells,"CV-1 cells [1]; CV-1 cells, 4 hours",shrinkage of cell bodies
same,beginning of cell shrinkage after treatment,CV-1 cells [1]; non-transfected CV-1 cells,1.5 h
same,inhibition of the phosphorylation of Lats2 by Aurora-A kinase,Aurora-A kinase,did not inhibit the phosphorylation of Lats2 by Aurora-A kinase
same,effect on the kinetics of tubulin polymerization,[2]; 0.5 μM,no effect on the kinetics of tubulin polymerization
same,influence on the effect of Taxol on tubulin polymerization,[2]; 0.5 μM Compound 1 with 3 μM or 30 nM Taxol,did not influence the effect of either high dose (3 μM) or low dose (30 nM) of Taxol on tubulin polymerization
same,effect on the accumulation of Taxol (Oregon Green 488-Taxol) at centrosomes,CHO cells,no effect on the accumulation of Taxol at centrosomes
same,cell death / growth inhibition of CRL-2261 cells,[3]; 36-48 hours,significant cell death of CRL-2261 cells; also recorded: more significantly inhibited than growth of U937 cells
same,Total cells (×10^6),[3]; 500 nM,0.69 ×10^6
same,Total cells (×10^6),[3]; 5000 nM,0.75 ×10^6
same,Total cells (×10^7),[3]; 0.5 nM,1.32 ×10^7
same,Total cells (×10^7),[3]; 5 nM,1.11 ×10^7
same,Total cells (×10^7),[3]; 50 nM,0.26 ×10^7
same,Total cells (×10^7),[3]; 500 nM,0.14 ×10^7
same,Total cells (×10^7),[3]; 5000 nM,0.16 ×10^7
same,influence on MAP-enriched tubulin polymerization,[4],does not influence MAP-enriched tubulin polymerization
same,organization of the microtubule network,CV-1 cells [5],"dramatic alterations in the cells' microtubule network; also recorded: loss of centrosomal enucleated microtubules, clearing up of microtubules from the cytosol, and coiling up of microtubules around the nucleus and at the cell periphery; also recorded: disruption of the microtubule network"
same,cell death of U937 cells,[6]; 36 hours,less affected
same,Total cells (×10^6),[6]; 500 nM,2.13 ×10^6
same,Total cells (×10^6),[6]; 5000 nM,2.40 ×10^6
same,organization of the actin network,CV-1 cells [7],dramatic alterations in the cells' actin cytoskeletal networks; also recorded: induced the disappearance of cytosolic actin bundles
